What all share (format): biochemical
One assay has as its target T1, Pim-1 (Homo sapiens, UniProt P11309).
T1 construct: His6-labelled recombinant full-length human Pim-1, Pim-2 or Pim-3 protein; His6; made in house
The experiment in a line: TR-FRET assay, Pim-1 kinase (phosphorylation of Bad Ser112). The conditions noted are these: TR-FRET; ATP 40 μM; read-out: IC50 Pim1. The procedure, abridged: (§1)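 For each of Pim-1, Pim-2 and Pim-3 (His6-tagged full-length human), compounds were titrated over 10 concentrations in duplicate, typically from 30 μM, with ATP at 40 μM, equal to apparent KM. Bad Ser112 phosphorylation was read as the 665/615 nm TR-FRET ratio and IC50 fitted by 4-parameter logistic model.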
For orientation: Time-resolved FRET reads energy transfer from a long-lived donor to a nearby acceptor.

Another assay concerns the target T2, Pim-2 (Homo sapiens, UniProt Q9P1W9).
T2 construct: His6-labelled recombinant full-length human Pim-1, Pim-2 or Pim-3 protein; His6; made in house
Briefly: TR-FRET assay, Pim-2 kinase (phosphorylation of Bad Ser112). The conditions noted are these: TR-FRET; ATP 40 μM; read-out: IC50 Pim2. Summed up: as §1

The target of a further assay is T3, Pim-3 (Homo sapiens, UniProt Q86V86).
T3 construct: His6-labelled recombinant full-length human Pim-1, Pim-2 or Pim-3 protein; His6; made in house
The experiment in a line: TR-FRET assay, Pim-3 kinase (phosphorylation of Bad Ser112). The following applies: TR-FRET; ATP 40 μM; read-out: IC50 Pim3. The procedure, abridged: as §1

Bounds are passed on as bounds.

In general, IC50 refers to the concentration at which inhibition is half-maximal.

T1 sequence (P11309 whole entry): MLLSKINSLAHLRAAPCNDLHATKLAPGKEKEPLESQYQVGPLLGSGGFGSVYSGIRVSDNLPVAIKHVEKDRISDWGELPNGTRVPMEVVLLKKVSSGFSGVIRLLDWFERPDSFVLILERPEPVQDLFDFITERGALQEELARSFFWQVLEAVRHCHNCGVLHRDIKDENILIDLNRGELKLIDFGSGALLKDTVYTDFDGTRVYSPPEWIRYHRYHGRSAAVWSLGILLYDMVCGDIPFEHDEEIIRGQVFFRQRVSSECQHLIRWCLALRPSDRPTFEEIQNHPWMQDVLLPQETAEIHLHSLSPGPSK
T2 sequence (Q9P1W9 whole entry): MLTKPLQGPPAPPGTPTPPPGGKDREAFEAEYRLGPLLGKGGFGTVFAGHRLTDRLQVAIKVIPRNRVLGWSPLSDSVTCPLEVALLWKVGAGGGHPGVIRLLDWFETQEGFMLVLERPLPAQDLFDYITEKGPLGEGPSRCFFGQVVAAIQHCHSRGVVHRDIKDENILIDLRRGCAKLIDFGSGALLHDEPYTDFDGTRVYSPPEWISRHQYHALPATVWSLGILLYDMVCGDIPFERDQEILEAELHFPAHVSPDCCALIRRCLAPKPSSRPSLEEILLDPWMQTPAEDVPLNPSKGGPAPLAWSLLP

Regarding `Ic1cnc2[nH]c3cnc(-c4cccnc4)cc3c2c1` [Example 114, 3-iodo-6-(pyrid-3-yl)-9H-pyrrolo[2,3-b:5,4-c′]dipyridine], the results for the IC50 on Pim-1, at Pim-2 and at Pim-3 were 100 to 1000 nM, 1000 to 5000 nM and 100 to 1000 nM, respectively.

Take `CC(C)Cn1cc(-c2cnc3[nH]c4cnc(-c5cccnc5)cc4c3c2)cn1` [Example 117, 3-[1-(2-methyl-propyl)-1H-pyrazol-4-yl]-6-(pyrid-3-yl)-9H-pyrrolo[2,3-b:5,4-c′]dipyridine]: the IC50 on Pim-1 lay in the range of 1 to 100 nM; on Pim-2, 1000 to 5000 nM; on Pim-3 it was 1 to 100 nM.

`c1cncc(-c2cc3c(cn2)[nH]c2ncc(-c4cccc(N5CCNCC5)c4)cc23)c1` [Example 132, 3-[3-(piperazin-1-yl)phenyl]-6-(pyrid-3-yl)-9H-pyrrolo[2,3-b:5,4-c′]dipyridine]: the figures for the IC50 at Pim-1, at Pim-2 and at Pim-3 were 1 to 100 nM, 100 to 1000 nM and 1 to 100 nM, respectively.

Consider `CN(C)CC(=O)N1CCN(c2cccc(-c3cnc4[nH]c5cnc(-c6cccnc6)cc5c4c3)c2)CC1` [Example 134, 2-(dimethylamino)-1-(4-{3-[6-(pyrid-3-yl)-9H-pyrrolo[2,3-b:5,4-c′]dipyrid-3-yl]-phenyl}piperazin-1-yl)ethanone], for which the IC50 on Pim-1 was 1 to 100 nM; at Pim-2, more than 5000 nM; on Pim-3 it was 1 to 100 nM.

For `CN(C)CC(=O)N1CCN(c2ccc(-c3cnc4[nH]c5cnc(-c6cccnc6)cc5c4c3)cc2)CC1` [Example 135, 2-(dimethylamino)-1-(4-{4-[6-(pyrid-3-yl)-9H-pyrrolo[2,3-b:5,4-c′]dipyrid-3-yl]-phenyl}piperazin-1-yl)ethanone], the IC50 at Pim-1 was 1 to 100 nM; on Pim-2, 100 to 1000 nM; at Pim-3 it was 1 to 100 nM.

In the case of `CC(=O)N1CCN(c2cccc(-c3cnc4[nH]c5cnc(-c6cccnc6)cc5c4c3)c2)CC1` [Example 136, 1-(4-{3-[6-(pyrid-3-yl)-9H-pyrrolo[2,3-b:5,4-c′]dipyrid-3-yl]phenyl}piperazin-1-yl)-ethanone], the values for the IC50 at Pim-1, at Pim-2 and on Pim-3 were 1 to 100 nM, more than 5000 nM and 1 to 100 nM, respectively.

Turning to `CC(=O)N1CCN(c2ccc(-c3cnc4[nH]c5cnc(-c6cccnc6)cc5c4c3)cc2)CC1` [Example 137, 1-(4-{4-[6-(pyrid-3-yl)-9H-pyrrolo[2,3-b:5,4-c′]dipyrid-3-yl]phenyl}piperazin-1-yl)-ethanone], the IC50 is 1 to 100 nM at Pim-1, 100 to 1000 nM at Pim-2 and 1 to 100 nM at Pim-3.

`CN1CCN(c2ccc(-c3cnc4[nH]c5cnc(-c6cccnc6)cc5c4c3)cc2)CC1` [Example 138, 3-[4-(4-methylpiperazin-1-yl)phenyl]-6-(pyrid-3-yl)-9H-pyrrolo[2,3-b:5,4-c′]dipyridine]: the half-maximal inhibitory concentration (IC50) on Pim-1 lay within 1 to 100 nM; on Pim-2, 100 to 1000 nM; at Pim-3, 1 to 100 nM.

For the molecule `CN1CCN(c2cccc(-c3cnc4[nH]c5cnc(-c6cccnc6)cc5c4c3)c2)CC1` [Example 139, 3-[3-(4-methylpiperazin-1-yl)phenyl]-6-(pyrid-3-yl)-9H-pyrrolo[2,3-b:5,4-c′]dipyridine], the IC50 was in the range of 1 to 100 nM on Pim-1, 1000 to 5000 nM on Pim-2 and 1 to 100 nM at Pim-3.

For `c1cncc(-c2cc3c(cn2)[nH]c2ncc(-c4ccc(N5CCN(C6CC6)CC5)cc4)cc23)c1` [Example 141, 3-[4-(4-cyclopropylpiperazin-1-yl)phenyl]-6-(pyrid-3-yl)-9H-pyrrolo[2,3-b:5,4-c′]-dipyridine], the values for the IC50 at Pim-1, at Pim-2 and at Pim-3 were 1 to 100 nM, 1000 to 5000 nM and 1 to 100 nM, respectively.

As for `c1cncc(-c2cc3c(cn2)[nH]c2ncc(-c4cccc(N5CCN(C6CC6)CC5)c4)cc23)c1` [Example 142, 3-[3-(4-cyclopropylpiperazin-1-yl)phenyl]-6-(pyrid-3-yl)-9H-pyrrolo[2,3-b:5,4-c′]-dipyridine], the IC50 on Pim-1 is 1 to 100 nM; on Pim-2 it was more than 5000 nM; on Pim-3 it was 1 to 100 nM.

The record behind these values is patent US20110178053A1, “AZACARBOLINE DERIVATIVES, PREPARATION METHOD THEREOF AND THERAPEUTIC USE OF SAME” (SANOFI-AVENTIS, priority 2008, published 2011).
